From the NIST ThermoML archive (doi:10.1021/je049582g)

Assay: cn = amount concentration of the nth substance listed, in mol/dm3
Conditions: 298 K, 101 kPa, Liquid, holographic interferometric technique

CC[C@H](C)[C@H](N)C(=O)O [2-amino-3-methylpentanoic acid] + O
Conditions	binary diffusion coefficient [m2/s]
c1 = 0.0101	7.61e-10
c1 = 0.0203	7.5e-10
c1 = 0.0301	7.39e-10
c1 = 0.0399	7.32e-10
c1 = 0.05	7.25e-10

NCC(=O)O [2-aminoacetic acid] + O
Conditions	binary diffusion coefficient [m2/s]
c1 = 0.1057	1.04e-09
c1 = 0.3056	1e-09
c1 = 0.5045	9.73e-10
c1 = 0.7064	9.57e-10
c1 = 0.9045	9.43e-10

NCCC(=O)O [3-aminopropanoic acid] + O
Conditions	binary diffusion coefficient [m2/s]
c1 = 0.0281	9.36e-10
c1 = 0.0288	9.35e-10
c1 = 0.0299	9.34e-10
c1 = 0.0344	9.33e-10
c1 = 0.111	9.18e-10
c1 = 0.5605	8.67e-10
c1 = 0.5886	8.68e-10
c1 = 1.123	8.18e-10
c1 = 1.766	7.79e-10
c1 = 2.34	7.52e-10
c1 = 2.665	7.4e-10
c1 = 3.008	7.2e-10
c1 = 3.931	6.63e-10
c1 = 4.543	6.25e-10
c1 = 5.419	5.6e-10

CC[C@@H](N)C(=O)O [(R)-(-)-α-aminobutyric acid] + O
Conditions	binary diffusion coefficient [m2/s]
c1 = 0.2	8e-10
c1 = 0.4	7.72e-10
c1 = 0.6	7.45e-10
c1 = 0.8	7.2e-10
c1 = 1	6.97e-10

C[C@H](N)C(=O)O [(S)-2-aminopropanoic acid] + O
Conditions	binary diffusion coefficient [m2/s]
c1 = 0.0997	9.04e-10
c1 = 0.2996	8.59e-10
c1 = 0.4996	8.34e-10
c1 = 0.7002	8.12e-10
c1 = 0.9006	7.92e-10

OC[C@H]1O[C@@](CO)(O[C@H]2O[C@H](CO)[C@@H](O)[C@H](O)[C@H]2O)[C@@H](O)[C@@H]1O [D-sucrose] + O
Conditions	binary diffusion coefficient [m2/s]
c1 = 0.1	4.89e-10
c1 = 0.3	4.27e-10
c1 = 0.5	3.67e-10
c1 = 0.7	3.06e-10

CC(N)C(=O)O (stereo not drawn) [DL-2-aminopropanoic acid] + O
Conditions	binary diffusion coefficient [m2/s]
c1 = 0.0271	9.11e-10
c1 = 0.0281	9.11e-10
c1 = 0.2233	8.84e-10
c1 = 0.4374	8.56e-10
c1 = 0.6786	8.27e-10
c1 = 0.9025	8.02e-10
c1 = 1.195	7.72e-10
c1 = 1.541	7.41e-10

N=C(N)NCCC[C@H](N)C(=O)O [L-arginine] + O
Conditions	binary diffusion coefficient [m2/s]
c1 = 0.1002	7.01e-10
c1 = 0.2	6.61e-10
c1 = 0.2949	6.36e-10
c1 = 0.4001	6.21e-10
c1 = 0.5	6.04e-10

N[C@@H](CO)C(=O)O [L-serine] + O
Conditions	binary diffusion coefficient [m2/s]
c1 = 0.01	9.16e-10
c1 = 0.0301	8.91e-10
c1 = 0.05	8.79e-10
c1 = 0.07	8.71e-10
c1 = 0.0902	8.65e-10

C[C@@H](O)[C@H](N)C(=O)O [L-threonine] + O
Conditions	binary diffusion coefficient [m2/s]
c1 = 0.1006	7.86e-10
c1 = 0.2002	7.58e-10
c1 = 0.2994	7.42e-10
c1 = 0.4002	7.25e-10
c1 = 0.5003	7.15e-10

CC(C)[C@H](N)C(=O)O [L-valine] + O
Conditions	binary diffusion coefficient [m2/s]
c1 = 0.1	7.12e-10
c1 = 0.2	6.79e-10
c1 = 0.2999	6.55e-10
c1 = 0.4	6.45e-10
c1 = 0.5001	6.33e-10

[Cl-].[K+] [potassium chloride] + O
Conditions	binary diffusion coefficient [m2/s]
c1 = 0.33	1.83e-10

NC(N)=O [urea] + O
Conditions	binary diffusion coefficient [m2/s]
c1 = 0.125	1.37e-09
c1 = 0.2475	1.36e-09
c1 = 0.5	1.34e-09
c1 = 0.75	1.33e-09
c1 = 0.9782	1.31e-09
c1 = 1	1.31e-09
c1 = 1.5	1.27e-09
c1 = 2	1.24e-09
c1 = 3	1.19e-09
c1 = 4	1.14e-09
